Experimental data from patent publication US12435051B2, “Dual modulator of mGluR5 and 5-HT2A receptor, and use thereof” (Vivozon Inc., priority 2020, dated 2025).

Legend:
[1] = molecular target: T1, mGluR5 (Homo sapiens, UniProt P41594); test: Fluorescence-based Ca2+ mobilization assay; type: cell-based; conditions: HEK293 cells overexpressing mGluR5; L-glutamate at EC80
T1 construct: expressed in transfected cells; host or cells: HEK293
Protocol: In order to measure the activity on the mGluR5, an experiment was carried out to check the change in the intracellular Ca^2+ level using the HEK293 cell line permanently overexpressing the mGluR5. The cells in the cell culture medium were aliquoted into a 384-well plate coated with poly-D-lysine and cultured in a 37° C. incubator supplied with 5% CO2. The next day, the medium was removed and a dye loading buffer—in which a reagent capable of measuring Ca^2+ was dissolved—was added, and then incubated at 37° C. for 60 minutes. The test compounds were dissolved in 100% DMSO at a final concentration of 10 mM to make a stock solution. The starting concentration of […] was prepared from the stock solution, followed by serial dilutions to prepare working solutions (test compound working solutions). The test compound working solutions were added to the cells that were incubated in the dye loading buffer, which were maintained for 30 minutes at room temperature in a light-shielding state before measurement. The Ca^2+ level change induced by L-glutamate at EC80 concentration was measured for 2 minutes using FLIPR Tetra (MDS Analytical Technologies). The fluorescent Ca^2+ signal values in the presence of the test compounds were normalized to the fluorescent signal elicited by […] concentration of L-glutamate as 100% and that elicited by vehicle as 0% to estimate % inhibition of the test compounds. The efficacy of the test compounds was calculated as IC50 values and represented in Table 1. (+: 1,000-2,000 nM, ++: 500-1,000 nM, +++: 100-500 nM, ++++: less than 100 nM).

[2] = molecular target: T2, human 5-HT2AR (Homo sapiens, UniProt P28223); test: HTRF-based IP1 accumulation assay (5-HT2AR antagonistic effect); type: cell-based; conditions: HEK293 cells overexpressing human 5-HT2AR; serotonin at EC80
T2 construct: expressed in transfected cells; host or cells: HEK293
T2 sequence (P28223 whole entry): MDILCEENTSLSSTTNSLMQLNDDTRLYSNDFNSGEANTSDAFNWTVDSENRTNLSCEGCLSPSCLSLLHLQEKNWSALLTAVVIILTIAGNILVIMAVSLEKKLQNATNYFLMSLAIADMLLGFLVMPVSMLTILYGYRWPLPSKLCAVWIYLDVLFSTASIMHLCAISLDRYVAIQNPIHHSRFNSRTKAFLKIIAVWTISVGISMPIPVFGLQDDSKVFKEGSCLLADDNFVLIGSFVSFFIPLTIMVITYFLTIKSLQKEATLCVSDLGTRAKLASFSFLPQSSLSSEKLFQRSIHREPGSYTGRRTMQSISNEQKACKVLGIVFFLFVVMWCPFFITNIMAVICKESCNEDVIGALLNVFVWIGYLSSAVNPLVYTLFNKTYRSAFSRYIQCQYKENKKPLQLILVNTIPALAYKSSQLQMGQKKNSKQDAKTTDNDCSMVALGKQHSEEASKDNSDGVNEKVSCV
Protocol: The 5-HT2AR antagonistic effect of the test compounds was confirmed by measuring the production amount of IP1 using the HEK293 cell line permanently overexpressing the human 5-HT2AR. The test compounds were dissolved in 100% DMSO to a final concentration of 10 mM. The starting concentration of 10 μM was prepared from the stock solution, followed by serial dilutions to prepare working solutions in a buffer containing lithium chloride (LiCl). The cells and compounds prepared in the test buffer were placed in a 96-well plate and incubated at room temperature for 10 minutes. Serotonin of EC80 concentration was added, followed by incubation at 37° C. for 30 minutes in a light-shielding state. To measure IP1 accumulation in cells, JP1-d2 acceptor and IP1-Cryptate donor-which are HTRF-based substances for fluorescence signals-were added and incubated for 1 hour at room temperature in a light-shielded state. The fluorescent emission signals of acceptor and donor were detected, and HTRF ratio values were substracted by mean value of serotonin control. The percentage of activation was calculated by normalization of the serotonin control (0%) and IP1 control (100%). The IC50 values of the test compounds are represented in Table 1. (+: 1,000-2,000 nM, ++: 500-1,000 nM, +++: 100-500 nM, ++++: less than 100 nM).

T1 sequence (P41594 21-1212): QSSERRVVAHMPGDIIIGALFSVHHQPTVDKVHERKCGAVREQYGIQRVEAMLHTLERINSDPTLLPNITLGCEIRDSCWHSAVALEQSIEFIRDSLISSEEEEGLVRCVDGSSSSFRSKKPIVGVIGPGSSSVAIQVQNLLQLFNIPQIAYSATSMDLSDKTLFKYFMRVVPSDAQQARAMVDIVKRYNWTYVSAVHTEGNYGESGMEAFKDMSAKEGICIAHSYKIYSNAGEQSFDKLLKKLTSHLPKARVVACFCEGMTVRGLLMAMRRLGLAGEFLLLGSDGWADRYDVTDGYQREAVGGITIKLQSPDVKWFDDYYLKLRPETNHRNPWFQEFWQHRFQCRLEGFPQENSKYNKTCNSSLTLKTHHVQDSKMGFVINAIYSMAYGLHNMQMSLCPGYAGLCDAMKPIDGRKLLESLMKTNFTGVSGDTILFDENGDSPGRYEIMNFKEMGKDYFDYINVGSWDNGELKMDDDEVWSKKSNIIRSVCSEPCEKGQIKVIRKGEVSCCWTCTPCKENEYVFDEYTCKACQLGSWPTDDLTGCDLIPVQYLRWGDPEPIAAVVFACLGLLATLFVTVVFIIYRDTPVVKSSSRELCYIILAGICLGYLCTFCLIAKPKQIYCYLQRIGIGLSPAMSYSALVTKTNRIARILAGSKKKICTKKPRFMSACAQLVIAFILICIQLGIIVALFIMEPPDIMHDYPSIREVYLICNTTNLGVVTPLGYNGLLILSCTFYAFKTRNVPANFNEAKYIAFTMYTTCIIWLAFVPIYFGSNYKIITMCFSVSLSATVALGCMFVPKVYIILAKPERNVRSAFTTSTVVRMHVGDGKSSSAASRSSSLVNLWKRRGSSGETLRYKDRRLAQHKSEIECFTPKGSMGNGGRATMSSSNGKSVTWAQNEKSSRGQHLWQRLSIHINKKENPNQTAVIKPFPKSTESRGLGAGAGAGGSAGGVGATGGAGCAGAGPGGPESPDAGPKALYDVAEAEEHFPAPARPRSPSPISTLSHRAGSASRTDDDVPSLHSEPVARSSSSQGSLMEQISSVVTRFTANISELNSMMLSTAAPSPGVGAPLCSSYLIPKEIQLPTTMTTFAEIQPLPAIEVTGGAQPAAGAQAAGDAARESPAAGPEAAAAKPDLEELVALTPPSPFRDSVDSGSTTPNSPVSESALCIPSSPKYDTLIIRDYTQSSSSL

Row | Structure (SMILES) | IC50 [1] [nM] | IC50 [2] [nM]
1 | CC(C)NC1(CNC(=O)c2ccc(C#Cc3ccccc3F)cc2)CCOCC1 [Example 24, 4-((2-fluorophenyl)ethynyl)-N-((4-(isopropylamino)tetrahydro-2H-pyran-4-yl)methyl)benzamide] | 100 to 500 | 100 to 500
2 | O=C(NC[C@@H]1CCOC1)c1ccc(C#Cc2ccc(F)cc2F)cc1 [Example 113, (S)-4-((2,4-difluorophenyl)ethynyl)-N-((tetrahydrofuran-3-yl)methyl)benzamide] | 500 to 1000 | < 100
3 | O=C(NC[C@H]1C[C@H](O)C1)c1ccc(C#Cc2ccccc2F)cc1 [Example 86, 4-((2-fluorophenyl)ethynyl)-N-(((1r,3r)-3-hydroxycyclobutyl)methyl)benzamide] | 100 to 500 | 1000 to 2000
4 | O=C(NCC1(NCC(F)(F)F)CCCCC1)c1ccc(C#Cc2ccncc2)cc1 [Example 31, 4-(pyridin-4-ylethynyl)-N-((1-((2,2,2-trifluoroethyl)amino)cyclohexyl)methyl)benzamide] | 1000 to 2000 | 1000 to 2000
5 | O=C(NCC1(O)CCCCC1)c1ccc(C#Cc2ccccc2F)cc1 [Example 32, 4-((2-fluorophenyl)ethynyl)-N-((1-hydroxycyclohexyl)methyl)benzamide] | < 100 | 500 to 1000
6 | O=C(NCC1(NC2CC2)CCC1)c1ccc(C#Cc2ccc(F)cn2)cc1 [Example 4, N-((1-(cyclopropylamino)cyclobutyl)methyl)-4-((5-fluoropyridin-2-yl)ethynyl)benzamide] | 1000 to 2000 | 100 to 500
7 | [2H]C(NC(=O)c1ccc(C#Cc2ccccc2F)cc1)C1(C)COC1 (centres unmarked) [Example 95, 4-((2-fluorophenyl)ethynyl)-N-((3-methyloxetan-3-yl)methyl-d)benzamide] | < 100 | 500 to 1000
8 | CC1(CNC(=O)c2ccc(C#Cc3ccc(F)cc3)cc2)CCC1 [Example 106, 4-((4-fluorophenyl)ethynyl)-N-((1-methylcyclobutyl)methyl)benzamide] | < 100 | 100 to 500
9 | CC1(CNC(=O)c2ccc(C#Cc3ccccc3F)cc2)CC(F)(F)C1 [Example 97, N-((3,3-difluoro-1-methylcyclobutyl)methyl)-4-((2-fluorophenyl)ethynyl)benzamide] | < 100 | 1000 to 2000
10 | O=C(NC[C@@H]1CCCO1)c1ccc(C#Cc2ccc(F)cc2F)cc1 [Example 117, (S)-4-((2,4-difluorophenyl)ethynyl)-N-((tetrahydrofuran-2-yl)methyl)benzamide] | 500 to 1000 | < 100
11 | O=C(NC[C@H]1C[C@@H](O)C1)c1ccc(C#Cc2ccccc2F)cc1 [Example 85, 4-((2-fluorophenyl)ethynyl)-N-(((1s,3s)-3-hydroxycyclobutyl)methyl)benzamide] | 100 to 500 | 500 to 1000
12 | CNC(=O)C1(CNC(=O)c2ccc(C#Cc3ccccc3F)cc2)CCOCC1 [Example 53, 4-((4-((2-fluorophenyl)ethynyl)benzamido)methyl)-N-methyltetrahydro-2H-pyran-4-carboxamide] | 500 to 1000 | 1000 to 2000
13 | O=C(NC[C@H]1CCCO1)c1ccc(C#Cc2ccc(F)cc2F)cc1 [Example 114, (R)-4-((2,4-difluorophenyl)ethynyl)-N-((tetrahydrofuran-2-yl)methyl)benzamide] | < 100 | < 100
14 | O=C(NCC1(c2cccnc2)CCCC1)c1ccc(C#Cc2ccccc2F)cc1 [Example 34, 4-((2-fluorophenyl)ethynyl)-N-((1-(pyridin-3-yl)cyclopentyl)methyl)benzamide] | 500 to 1000 | 1000 to 2000
15 | O=C(NCC1(N2CCOCC2)CCCC1)c1ccc(C#Cc2ccccc2F)cc1 [Example 23, 4-((2-fluorophenyl)ethynyl)-N-((1-morpholinocyclopentyl)methyl)benzamide] | 500 to 1000 | 100 to 500
16 | COC(=O)CCC1(CNC(=O)c2ccc(C#Cc3ccccc3F)cc2)CCCCC1 [Example 59, methyl 3-(1-((4-((2-fluorophenyl)ethynyl)benzamido)methyl)cyclohexyl)propanoate] | 100 to 500 | 500 to 1000

Row | Structure (SMILES) | IC50 [1] [nM] | IC50 [2] [nM]
17 | O=C(NC[C@@H]1CCCO1)c1ccc(C#Cc2ccc(F)cc2)cc1 [Example 111, (S)-4-((4-fluorophenyl)ethynyl)-N-((tetrahydrofuran-2-yl)methyl)benzamide] | 100 to 500 | 100 to 500
18 | O=C(NC[C@@H]1CCOC1)c1ccc(C#Cc2ccccc2F)cc1 [Example 93, (S)-4-((2-fluorophenyl)ethynyl)-N-((tetrahydrofuran-3-yl)methyl)benzamide] | 100 to 500 | 100 to 500
19 | O=C(NC[C@H]1CCCO1)c1ccc(C#Cc2ccc(F)cc2)cc1 [Example 110, (R)-4-((4-fluorophenyl)ethynyl)-N-((tetrahydrofuran-2-yl)methyl)benzamide] | < 100 | 100 to 500
20 | CNC(=O)CC1(CNC(=O)c2ccc(C#Cc3ccccc3F)cc2)CCCCC1 [Example 80, 4-((2-fluorophenyl)ethynyl)-N-((1-(2-(methylamino)-2-oxoethyl)cyclohexyl)methyl)benzamide] | 100 to 500 | 100 to 500
21 | C[C@@H](NC(=O)c1ccc(C#Cc2ccccc2F)cc1)C1CCOCC1 [Example 47, (R)-4-((2-fluorophenyl)ethynyl)-N-(1-(tetrahydro-2H-pyran-4-yl)ethyl)benzamide] | < 100 | 100 to 500
22 | O=C(O)CCC1(CNC(=O)c2ccc(C#Cc3ccccc3F)cc2)CCOCC1 [Example 60, 3-(4-((4-((2-fluorophenyl)ethynyl)benzamido)methyl)tetrahydro-2H-pyran-4-yl)propanoic acid] | 500 to 1000 | 500 to 1000
23 | CC1CCC(CNC(=O)c2ccc(C#Cc3ccccc3F)cc2)(NC2CC2)CC1 (centres unmarked) [Example 26, N-((1-(cyclopropylamino)-4-methylcyclohexyl)methyl)-4-((2-fluorophenyl)ethynyl)benzamide] | 1000 to 2000 | < 100
24 | O=C(NC[C@@H]1CCCOC1)c1ccc(C#Cc2ccccc2F)cc1 [Example 91, (S)-4-((2-fluorophenyl)ethynyl)-N-((tetrahydro-2H-pyran-3-yl)methyl)benzamide] | < 100 | 1000 to 2000
25 | O=C(NCC1CCO1)c1ccc(C#Cc2ccc(F)cc2F)cc1 (centres unmarked) [Example 118, 4-((2,4-difluorophenyl)ethynyl)-N-(oxetan-2-ylmethyl)benzamide] | 1000 to 2000 | < 100
26 | CC(C)(C)CNC1(CNC(=O)c2ccc(C#Cc3ccccc3F)cc2)CCCCC1 [Example 28, 4-((2-fluorophenyl)ethynyl)-N-((1-(neopentylamino)cyclohexyl)methyl)benzamide] | 1000 to 2000 | 100 to 500
27 | CCC1(CNC(=O)c2ccc(C#Cc3ccc(F)cc3F)cc2)COC1 [Example 122, 4-((2,4-difluorophenyl)ethynyl)-N-((3-ethyloxetan-3-yl)methyl)benzamide] | 100 to 500 | < 100
28 | O=C(NCC1(NC2CC2)CCCC1)c1ccc(C#Cc2ccc(F)c(F)c2)cc1 [Example 17, N-((1-(cyclopropylamino)cyclopentyl)methyl)-4-((3,4-difluorophenyl)ethynyl)benzamide] | 1000 to 2000 | 100 to 500
29 | O=C(NCC1(O)CCC1)c1ccc(C#Cc2ccccc2F)cc1 [Example 57, 4-((2-fluorophenyl)ethynyl)-N-((1-hydroxycyclobutyl)methyl)benzamide] | < 100 | 500 to 1000
30 | O=C(NC[C@@H]1CCCOC1)c1ccc(C#Cc2ccc(F)cc2)cc1 [Example 100, (S)-4-((4-fluorophenyl)ethynyl)-N-((tetrahydro-2H-pyran-3-yl)methyl)benzamide] | 100 to 500 | 500 to 1000
31 | O=C(NCC1(CCCO)CCCCC1)c1ccc(C#Cc2ccccc2F)cc1 [Example 62, 4-((2-fluorophenyl)ethynyl)-N-((1-(3-hydroxypropyl)cyclohexyl)methyl)benzamide] | 100 to 500 | 1000 to 2000
